24 molecules from ChEMBL document CHEMBL2203286, “Synthesis and structure-activity relationship studies of cytotoxic vinorelbine amide analogues” (Bioorg Med Chem Lett, 2012) can be followed below.

Series [1] has as its system A549. As to the kind of experiment: Cytotoxicity against human A549 cells after 24 to 72 hrs by MTT assay. The series is classed as functional, cell-based. A general note: Tetrazolium dyes change colour on reduction, which living cells bring about.
Series [2] deals with A549. Put plainly: Antitumor activity against human A549 cells xenografted in BALB/cA nude mouse assessed as growth inhibition at 9 mg/kg, iv once every seven days for three doses relative to control. As to conditions: read-out: GI. Background: In xenograft studies the graft and the host belong to different species.
The test system of series [3] is Mus musculus. As to the kind of experiment: Toxicity in BALB/cA nude mouse xenografted with human A549 cells assessed as change in body weight at 9 mg/kg, iv once every seven days for three doses (reference value: 27.61 g). As to conditions: in vivo.
Series [4] relates to Mus musculus. Put plainly: Toxicity in BALB/cA nude mouse xenografted with human A549 cells assessed as mortality at 9 mg/kg, iv […]. In kind it is organism-based. As to conditions: in vivo. The arrangement: dose 9 mg/kg, route intravenous.
In series [5] the test system is A549. As to the kind of experiment: Ratio of navelbine IC50 to compound IC50 for human A549 cells. In kind it is functional.

One may read the IC50 as the concentration needed to halve the response being measured. In turn, `CCC1=C[C@@H]2CN(C1)Cc1c([nH]c3ccccc13)[C@@](C(=O)OC)(c1cc3c(cc1OC)N(C)[C@H]1[C@@](O)(CNC(C)=O)[C@H](OC(C)=O)[C@]4(CC)C=CCN5CC[C@]31[C@@H]54)C2` displayed an IC50 in the series with A549 [1] of 24.5 nM.

Turning to `CCC1=C[C@@H]2CN(C1)Cc1c([nH]c3ccccc13)[C@@](C(=O)OC)(c1cc3c(cc1OC)N(C)[C@H]1[C@@](O)(CNC(=O)c4ccc(C(F)(F)F)cc4)[C@H](OC(C)=O)[C@]4(CC)C=CCN5CC[C@]31[C@@H]54)C2`, in the series with A549 [1], the IC50 stood at 20.7 nM.

Turning to `CCCCC(=O)NC[C@@]1(O)[C@H](OC(C)=O)[C@]2(CC)C=CCN3CC[C@@]4(c5cc([C@@]6(C(=O)OC)C[C@@H]7C=C(CC)CN(Cc8c6[nH]c6ccccc86)C7)c(OC)cc5N(C)[C@@H]14)[C@@H]32`, in the series on A549 [1], the midpoint of inhibition, the IC50, lay at 22.1 nM. Still for that read-out and setting: as for `CCC1=C[C@@H]2CN(C1)Cc1c([nH]c3ccccc13)[C@@](C(=O)OC)(c1cc3c(cc1OC)N(C)[C@H]1[C@@](O)(CNC(=O)c4ccc([N+](=O)[O-])cc4)[C@H](OC(C)=O)[C@]4(CC)C=CCN5CC[C@]31[C@@H]54)C2`, the figure is 41.1 nM. Still for that read-out and setting: as for `CCC1=C[C@@H]2CN(C1)Cc1c([nH]c3ccccc13)[C@@](C(=O)OC)(c1cc3c(cc1OC)N(C)[C@H]1[C@@](O)(CNC(=O)c4ccc(C)cc4)[C@H](OC(C)=O)[C@]4(CC)C=CCN5CC[C@]31[C@@H]54)C2`, the figure is 15.3 nM; as for `CCC1=C[C@@H]2CN(C1)Cc1c([nH]c3ccccc13)[C@@](C(=O)OC)(c1cc3c(cc1OC)N(C)[C@H]1[C@@](O)(CNC(=O)c4ccc(Cl)cc4)[C@H](OC(C)=O)[C@]4(CC)C=CCN5CC[C@]31[C@@H]54)C2`, 25.6 nM. The same measure, in the same setting: as for `CCC(=O)NC[C@@]1(O)[C@H](OC(C)=O)[C@]2(CC)C=CCN3CC[C@@]4(c5cc([C@@]6(C(=O)OC)C[C@@H]7C=C(CC)CN(Cc8c6[nH]c6ccccc86)C7)c(OC)cc5N(C)[C@@H]14)[C@@H]32`, the figure is 15.6 nM. `CCC1=C[C@@H]2CN(C1)Cc1c([nH]c3ccccc13)[C@@](C(=O)OC)(c1cc3c(cc1OC)N(C)[C@H]1[C@@](O)(CNC(=O)c4cccc(C)c4)[C@H](OC(C)=O)[C@]4(CC)C=CCN5CC[C@]31[C@@H]54)C2` registered a concentration for half-maximal inhibition (IC50) in the series on A549 [1] of 17.2 nM.

Molecule `CCC1=C[C@@H]2CN(C1)Cc1c([nH]c3ccccc13)[C@@](C(=O)OC)(c1cc3c(cc1OC)N(C)[C@H]1[C@@](O)(CNC(=O)c4cccc(OC)c4)[C@H](OC(C)=O)[C@]4(CC)C=CCN5CC[C@]31[C@@H]54)C2` registered an IC50 in the series on A549 [1] of 6.3 nM. The same measure, in the same setting: as for `CCC1=C[C@@H]2CN(C1)Cc1c([nH]c3ccccc13)[C@@](C(=O)OC)(c1cc3c(cc1OC)N(C)[C@H]1[C@@](O)(CNC(=O)C(C)C)[C@H](OC(C)=O)[C@]4(CC)C=CCN5CC[C@]31[C@@H]54)C2`, the figure is 11.4 nM. Turning to `CCC1=C[C@@H]2CN(C1)Cc1c([nH]c3ccccc13)[C@@](C(=O)OC)(c1cc3c(cc1OC)N(C)[C@H]1[C@@](O)(CNC(=O)c4ccc(OC)c(OC)c4)[C@H](OC(C)=O)[C@]4(CC)C=CCN5CC[C@]31[C@@H]54)C2`, inhibition with A549 [1] was half-maximal at 6.5 nM (IC50). With `CCC1=C[C@@H]2CN(C1)Cc1c([nH]c3ccccc13)[C@@](C(=O)OC)(c1cc3c(cc1OC)N(C)[C@H]1[C@@](O)(CNC(=O)c4ccco4)[C@H](OC(C)=O)[C@]4(CC)C=CCN5CC[C@]31[C@@H]54)C2.O=C(O)C(O)C(O)C(=O)O`, the inhibition in vivo at 9 mg/kg in the series on A549 [2] was found to be 58%. For the same molecule, the Activity in the series on Mus musculus [3] is recorded as 25.45 g. The molecule further yielded an IC50 in the series with A549 [1] of 3.2 nM. In the case of `CCC1=C[C@@H]2CN(C1)Cc1c([nH]c3ccccc13)[C@@](C(=O)OC)(c1cc3c(cc1OC)N(C)[C@H]1[C@@](O)(CNC(=O)c4ccccc4)[C@H](OC(C)=O)[C@]4(CC)C=CCN5CC[C@]31[C@@H]54)C2.O=C(O)C(O)C(O)C(=O)O`, the figures for the Activity entry in the series with Mus musculus [4] and with Mus musculus [3] were “Non-toxic” and 24.6 g, respectively. For the same molecule, the inhibition in vivo at 9 mg/kg in the series with A549 [2] came out at 43.5%. For the same molecule, the midpoint of inhibition with A549 [1], the IC50, lay at 5 nM. Take `CCC1=C[C@@H]2CN(C1)Cc1c([nH]c3ccccc13)[C@@](C(=O)OC)(c1cc3c(cc1OC)N(C)[C@H]1[C@@](O)(CNC(=O)c4ccncc4)[C@H](OC(C)=O)[C@]4(CC)C=CCN5CC[C@]31[C@@H]54)C2`: in the series with A549 [1], half-maximal inhibition (IC50) was put at 8.1 nM.

`CCC1=C[C@@H]2CN(C1)Cc1c([nH]c3ccccc13)[C@@](C(=O)OC)(c1cc3c(cc1OC)N(C)[C@H]1[C@@](O)(C(=O)OC)[C@H](OC(C)=O)[C@]4(CC)C=CCN5CC[C@]31[C@@H]54)C2` [VINORELBINE]: the Activity entry is reported as “Non-toxic” with Mus musculus [4] and 26.22 g in the series with Mus musculus [3]. In addition, the inhibition in vivo at 9 mg/kg in the series with A549 [2] was 55.9%. The molecule further returned an IC50 in the series on A549 [1] of 9 nM. The molecule `CCC1=C[C@@H]2CN(C1)Cc1c([nH]c3ccccc13)[C@@](C(=O)OC)(c1cc3c(cc1OC)N(C)[C@H]1[C@@](O)(CNC(=O)C(C)(C)C)[C@H](OC(C)=O)[C@]4(CC)C=CCN5CC[C@]31[C@@H]54)C2` came in with an IC50 in the series on A549 [1] of 37 nM. Take `CCC1=C[C@@H]2CN(C1)Cc1c([nH]c3ccccc13)[C@@](C(=O)OC)(c1cc3c(cc1OC)N(C)[C@H]1[C@@](O)(CNC(=O)C4CC4)[C@H](OC(C)=O)[C@]4(CC)C=CCN5CC[C@]31[C@@H]54)C2.O=C(O)C(O)C(O)C(=O)O`: the “Ratio IC50” value with A549 [5] is on record as 3. For the same molecule, the Activity entry with Mus musculus [4] is recorded as “Non-toxic”; in the series with Mus musculus [3], 26.53 g. Also, in the series on A549 [2], the inhibition in vivo at 9 mg/kg was 18%. The molecule further yielded an IC50 in the series on A549 [1] of 3 nM. As to `CCC1=C[C@@H]2CN(C1)Cc1c([nH]c3ccccc13)[C@@](C(=O)OC)(c1cc3c(cc1OC)N(C)[C@H]1[C@@](O)(CNC(=O)CC(C)C)[C@H](OC(C)=O)[C@]4(CC)C=CCN5CC[C@]31[C@@H]54)C2`, the IC50 in the series with A549 [1] was determined as 22 nM. The same measure, in the same setting: as for `CCC1=C[C@@H]2CN(C1)Cc1c([nH]c3ccccc13)[C@@](C(=O)OC)(c1cc3c(cc1OC)N(C)[C@H]1[C@@](O)(CNC(=O)c4ccc(F)cc4)[C@H](OC(C)=O)[C@]4(CC)C=CCN5CC[C@]31[C@@H]54)C2`, the figure is 6.6 nM; as for `CCC1=C[C@@H]2CN(C1)Cc1c([nH]c3ccccc13)[C@@](C(=O)OC)(c1cc3c(cc1OC)N(C)[C@H]1[C@@](O)(CNC(=O)c4ccccc4F)[C@H](OC(C)=O)[C@]4(CC)C=CCN5CC[C@]31[C@@H]54)C2`, 7.3 nM. On the same count and under the same terms, as for `CCC(=O)NC[C@@]1(O)[C@H](OC(=O)CC)[C@]2(CC)C=CCN3CC[C@@]4(c5cc([C@@]6(C(=O)OC)C[C@@H]7C=C(CC)CN(Cc8c6[nH]c6ccccc86)C7)c(OC)cc5N(C)[C@@H]14)[C@@H]32`, the figure is 12 nM; as for `CCC1=C[C@@H]2CN(C1)Cc1c([nH]c3ccccc13)[C@@](C(=O)OC)(c1cc3c(cc1OC)N(C)[C@H]1[C@@](O)(CNC(=O)c4c(F)cccc4F)[C@H](OC(C)=O)[C@]4(CC)C=CCN5CC[C@]31[C@@H]54)C2`, 7.9 nM. The same measure, in the same setting: as for `CCC1=C[C@@H]2CN(C1)Cc1c([nH]c3ccccc13)[C@@](C(=O)OC)(c1cc3c(cc1OC)N(C)[C@H]1[C@@](O)(CNC(=O)Cc4ccccc4)[C@H](OC(C)=O)[C@]4(CC)C=CCN5CC[C@]31[C@@H]54)C2`, the figure is 16.2 nM; as for `CCCC(=O)NC[C@@]1(O)[C@H](OC(C)=O)[C@]2(CC)C=CCN3CC[C@@]4(c5cc([C@@]6(C(=O)OC)C[C@@H]7C=C(CC)CN(Cc8c6[nH]c6ccccc86)C7)c(OC)cc5N(C)[C@@H]14)[C@@H]32`, 17.3 nM.
